{"source": "patent US20050089473A1", "about": "“Potassium channel mediated delivery of agents through the blood-brain barrier” (Cedars-Sinai Medical Center, priority 2003, published 2005)", "type_in_all_cases": "in vivo, rat", "key": {"[1]": {"experiment": "Physiological measurements during BTB permeability determination", "experimental": "All animal experiments were conducted in accordance with policies set by the Institutional Animal Care and Usage Committee and NIH guidelines. A rat syngeneic tumor model was prepared using female Wistar rats and a human-tumor xenograft model in athymic nude rats weighing 180-200 g were prepared for the BBB/BTB permeability studies. Although brain tumor blood vessel development is rapid in rats compared to humans, this variable should not affect the findings or conclusions because the study analyzes the response of blood vessels, regardless of how rapidly they developed, to vasomodulators. The optimum number of tumor cells and incubation period for in vivo tumor growth was determined in separate experiments. Rat glioma (RG2) cells (1×10^5) in 5 μl of medium with 1.2% methylcellulose were injected into the basal ganglia of Wistar rats, while nude rats were injected with glioblastoma multiforme (GBM) primary cells (5×10^5). The coordinates were 5-mm lateral to the bregma and 4.5 mm deep to the basal ganglia. Seven days (for RG2 tumor) and 3-4 weeks (for GBM) after tumor implantation, the rats were prepared for permeability study as described by (Ningarsj, N. S., Rao, M., Hashizume, K., Asotra, K., and Black, K. L. Regulation of blood-brain tumor barrier permeability by calcium-activated potassium channels J. Pharmacol. Exp. Ther., 301:838-851, 2002; Ningaraj, N. S., Rao, M., and Black, K. L. Calcium-dependent potassium channels as a target protein ir. the modulation of blood-brain humor barrier. Drug News and Perspectives, 16:1-8, 2003). In regional permeability studies, 5 min after the start of the intracarotid (i.c.) infusion, 100 μCi/kg of [^14C] AIB, [^14C] dextran or [^14C] carboplatin to 1 ml phosphate buffer saline (PBS) was injected as an intravenous (i.v.) bolus within a 15 second period. To determine whether the infusion of vasomodulators would affect cerebral blood flow (CBF) at the tumor area, Cerebral Laser-Doppler Flowmetry (LDF) using a Laser-Doppler (DRT4, Moore Instruments Ltd., England) equipped with a DP3 optical (1 mm diameter) probe during 15 min i.c. infusion of vasomodulators in some rats (n=3/group) was used as described in Ningarsj, N. S., Rao, M., Hashizume, K., Asotra, K., and Black, K. L. Regulation of blood-brain tumor barrier permeability by calcium-activated potassium channels J. Pharmacol. Exp. Ther., 301:838-851, 2002; and Ningaraj, N. S., Rao, M., and Black, K. L. Calcium-dependent potassium channels as a target protein ir. the modulation of blood-brain humor barrier. Drug News and Perspectives, 16:1-8, 2003. Rats with abnormal CBF, blood gases or blood pressure were excluded from the study.\nThe physiological parameters were determined either before or during vasomodulator infusion. The values are mean±SD of n>4 rats, except for cerebral blood flowmetry (CBF) where three representative rats per group were used. pH is arterial pH; PaO2 is arterial oxygen; PaCO2 is arterial carbon dioxide; and MAP is mean arterial blood pressure."}, "[2]": {"test_system": "metastatic breast brain tumors", "experiment": "[14C]AIB uptake in metastatic breast brain tumor model", "conditions": "intravenous co-injection"}, "GBM and RG2 brain tumors": {"test_system": "GBM and RG2 brain tumors", "experiment": "GFP-adenoviral and erbB-2 antibody delivery across the BTB", "experimental": "GFP-Adv constructs were prepared as described by Smith et al. (Smith, G. M., Berry, R. L., Yang, J., and Tanelian, D. Electrophysiological analysis of dorsal root ganglion neurons pre- and post-coexpression of green fluorescent protein and functional 5-HHT3 recepter. J. Neurophysiol. 77:3115-3121, 1997) with slight modifications. GFP gene was first cloned into a shuttle vector, pAdTrack-CMV, and the resultant plasmid was linearized by digesting it with restriction endonuclease Pipe I, and subsequently co-transformed into E. Coli cells with an adenoviral backbone plasmid, pAdEasy-1. Recombinant plasmids were transfected into 293 cells. The presence of recombinant adenoviruses was verified by RT-PCR. GFP-Adv (1×10^9 pfu/ml) was infused intracarotidly (i.c.) with or without MS in rats with implanted GBM. Neu rabbits polyclonal and Her-2 MAb, which are specific for rat and human erbB-2 receptors, respectively, were used. […] Her-2 MAbs bound to Her-2 receptors, in vivo was detected by incubating rat brain cryosections as per the manufacturer's (Molecular Probes, OR) procedure with Alexa Flour-647 conjugated secondary antibody (Zecon labeling kit) that specifically binds to the IgG1 fragment of Her-2 MAb. Neu antibody binding to erbB-2 receptors in RG2 brain tumor sections was detected using anti-rabbit IgG conjugated with TRITC. […]"}, "[3]": {"conditions": "before or during vasomodulator infusion, mean±SD"}}, "note": "Structures can show the parent of a compound that is named as a salt.", "data": [{"smiles": "Nc1cc(N2CCCCC2)nc(N)[n+]1OS(=O)(=O)[O-]", "note": "[MS, minoxidil sulfate]", "values": [{"measurement": "PaCO2", "setting": "[1]; [3]", "value": "45 ± 1", "unit": "mm Hg"}, {"measurement": "PaO2", "setting": "[1]; [3]", "value": "90 ± 5", "unit": "mm Hg"}, {"measurement": "pH (arterial pH)", "setting": "[1]; [3]", "value": "7.38 ± 0.01"}, {"measurement": "Effect on CBF", "setting": "[1]; i.c. 30 μg/kg/min, laser Doppler", "value": "not to significantly affect CBF"}, {"measurement": "CBF (% change vs. vehicle)", "setting": "[1]; laser-Doppler flowmetry, three rats per group", "value": "8 ± 3", "unit": "% change vs. vehicle"}, {"measurement": "Level of [14C]AIB in brain tumor tissue versus saline", "setting": "[2]", "value": "approximately three times as great"}, {"measurement": "Level of [14C]AIB surrounding the tumor and in contralateral brain versus vehicle", "setting": "[2]", "value": "does not differ significantly"}, {"measurement": "Delivery of Her-2 MAb and Neu antibody to brain tumor", "setting": "GBM and RG2 brain tumors; MS 30 μg/kg/min i.c. 15 min, then antibody 1 mg/kg", "value": "enhanced delivery of Her-2 MAb selectively to GBM and Neu to RG2"}, {"measurement": "Delivery of adv-GFP to brain tumor", "setting": "GBM and RG2 brain tumors; MS i.c. with GFP-Adv 1×10^9 pfu/ml, GBM nude rats", "value": "enhanced adv-GFP delivery to brain tumors"}]}]}
